One block for each compound: values may come before it.
Legend:
HASMC = assay: Antiproliferative activity against human HASMC cells assessed as inhibition of cell proliferation measured after 24 hrs by MTT assay; assay type: functional, cell-based
Rattus norvegicus [1] = assay: Antihypertensive activity in spontaneously hypertensive rat model assessed as change in heart rate at 10 mg/Kg, po measured after 6 hrs; assay type: functional
Rattus norvegicus [2] = assay: Antihypertensive activity in spontaneously hypertensive rat model assessed as change in heart rate at 1 mmol/Kg, po measured after 10 hrs; assay type: functional
Rattus norvegicus [3] = assay: Antihypertensive activity in spontaneously hypertensive rat model assessed as change in heart rate at 1 mmol/Kg, po measured after 3 hrs; assay type: functional
Rattus norvegicus [4] = assay: Antihypertensive activity in spontaneously hypertensive rat model assessed as change in blood pressure at 3 mg/kg, po measured after 3 hrs; assay type: functional
Rattus norvegicus [5] = assay: Antihypertensive activity in spontaneously hypertensive rat model assessed as change in blood pressure at 3 mg/kg, po measured after 6 hrs; assay type: functional
Rattus norvegicus [6] = assay: Antihypertensive activity in spontaneously hypertensive rat model assessed as change in blood pressure at 3 mg/kg, po measured after 10 hrs; assay type: functional
[7] = Inhibition of HIF (unknown origin); parameters: species or system Homo sapiens
[8] = Lipophilicity, log D of compound; assay type: physicochemical; settings: octanol/water
[9] = molecular target: Ribosomal protein S6 kinase beta-1 (Homo sapiens, UniProt P23443); assay: Inhibition of p70S6 (unknown origin) […]
Lactate dehydrogenase = Lactate dehydrogenase (Plasmodium falciparum, UniProt Q0PJ46); assay: Inhibition of recombinant Plasmodium falciparum LDH
[10] = Inhibition of human recombinant LDH
[11] = Binding affinity to Plasmodium falciparum LDH assessed as inhibitory constant
Plasmodium falciparum [12] = assay: Antimalarial activity against drug sensitive Plasmodium falciparum 3D7; assay type: functional, organism-based
Plasmodium falciparum [13] = assay: Antimalarial activity against drug resistant Plasmodium falciparum KI; assay type: functional, organism-based
KB = assay: Antitumor activity against human KB cells assessed as reduction in cell viability; assay type: functional, cell-based
HeLa [14] = assay: Antitumor activity against human HeLa cells assessed as reduction in cell viability; assay type: functional, cell-based
Plasmodium falciparum [15] = assay: Antimalarial activity against Plasmodium falciparum assessed as parasitic reduction at 100 mg/kg relative to control; assay type: functional; parameters: scale not given: the % may be the effect or the level left
Plasmodium falciparum [16] = assay: Antimalarial activity against Plasmodium falciparum assessed as parasitic reduction at 10 mg/kg of chloroquine relative to control; assay type: functional; parameters: scale not given: the % may be the effect or the level left
[17] = Cmax in mouse at 100 mg/kg, po; assay type: ADME, organism-based; parameters: dose 100 mg/kg, route po; settings: in vivo
[18] = Cmax in mouse at 100 mg/kg, ip; assay type: ADME, organism-based; parameters: dose 100 mg/kg, route ip; settings: in vivo
[19] = Half life in mouse at 10 mg/kg, po; assay type: ADME, organism-based; settings: in vivo
[20] = Half life in mouse at 10 mg/kg, ip; assay type: ADME, organism-based; settings: in vivo
SK-OV-3 [21] = assay: Antiproliferative activity against human SK-OV-3 cells assessed as inhibition of cell proliferation by MTT assay; assay type: functional, cell-based
SK-OV-3 [22] = assay: Antitumor activity against human SK-OV-3 cells xenografted in mouse model assessed as reduction in tumor growth at 100 mg/kg bid relative to control; assay type: functional; parameters: scale not given: the % may be the effect or the level left
[23] = Half life in human liver microsomes; assay type: ADME
HCT-116 = assay: Antiproliferative activity against human HCT-116 cells assessed as inhibition of cell proliferation incubated for 24 hrs by MTT assay; assay type: functional, cell-based; settings: HCT-116, 24 h
SW480 = assay: cells; settings: Homo sapiens, SW480, 24 h
Description: Antiproliferative activity against human SW480 cells assessed as inhibition of cell proliferation incubated for 24 hrs by MTT assay

HeLa [24] = assay: Antiproliferative activity against human HeLa cells assessed as cell growth inhibition; assay type: functional, cell-based
HL-60 = assay: Antiproliferative activity against human HL-60 cells assessed as inhibition of cell proliferation incubated for 24 hrs by MTT assay; assay type: functional, cell-based; settings: HL-60, 24 h
A549 = assay: Antiproliferative activity against human A549 cells assessed as inhibition of cell proliferation incubated for 24 hrs by MTT assay; assay type: functional, cell-based; settings: A549, 24 h
BT-474 = assay: Antitumor activity against human BT-474 cells in xenografted mouse model assessed as reduction in tumor growth at 30 mg/kg, ip administered daily for 21 days relative to control; assay type: functional; parameters: scale not given: the % may be the effect or the level left; settings: time 21 day
HCC1954 = assay: Antitumor activity against human HCC1954 cells in xenografted mouse model assessed as reduction in tumor growth at 30 mg/kg, ip administered daily for 21 days relative to control; assay type: functional; parameters: scale not given: the % may be the effect or the level left; settings: time 21 day
MDA-MB-453 = assay: Antitumor activity against human MDA-MB-453 cells in xenografted mouse model assessed as reduction in tumor growth at 30 mg/kg, ip administered daily for 21 days relative to control; assay type: functional; parameters: scale not given: the % may be the effect or the level left; settings: time 21 day
SK-OV-3 [25] = assay: Antitumor activity against human SK-OV-3 cells in xenografted mouse model assessed as reduction in tumor growth at 30 mg/kg, ip administered daily for 21 days relative to control; assay type: functional; parameters: scale not given: the % may be the effect or the level left; settings: time 21 day
LNCaP = assay: Antitumor activity against human LNCaP cells in xenografted mouse model assessed as reduction in tumor growth at 30 mg/kg, ip administered daily for 21 days relative to control; assay type: functional; parameters: scale not given: the % may be the effect or the level left; settings: time 21 day
PANC-1 = assay: Antitumor activity against human PANC-1 cells in xenografted mouse model assessed as reduction in tumor growth at 30 mg/kg, ip administered daily for 21 days relative to control; assay type: functional; parameters: scale not given: the % may be the effect or the level left; settings: time 21 day
[26] = Half life in rat, iv; assay type: ADME; settings: in vivo
HeLa [27] = assay: Antitumor activity against human HeLa cells xenografted in mouse model assessed as reduction in tumor growth at 100 mg/kg bid relative to control; assay type: functional; parameters: scale not given: the % may be the effect or the level left

Chain of Ribosomal protein S6 kinase beta-1 (P23443 whole entry): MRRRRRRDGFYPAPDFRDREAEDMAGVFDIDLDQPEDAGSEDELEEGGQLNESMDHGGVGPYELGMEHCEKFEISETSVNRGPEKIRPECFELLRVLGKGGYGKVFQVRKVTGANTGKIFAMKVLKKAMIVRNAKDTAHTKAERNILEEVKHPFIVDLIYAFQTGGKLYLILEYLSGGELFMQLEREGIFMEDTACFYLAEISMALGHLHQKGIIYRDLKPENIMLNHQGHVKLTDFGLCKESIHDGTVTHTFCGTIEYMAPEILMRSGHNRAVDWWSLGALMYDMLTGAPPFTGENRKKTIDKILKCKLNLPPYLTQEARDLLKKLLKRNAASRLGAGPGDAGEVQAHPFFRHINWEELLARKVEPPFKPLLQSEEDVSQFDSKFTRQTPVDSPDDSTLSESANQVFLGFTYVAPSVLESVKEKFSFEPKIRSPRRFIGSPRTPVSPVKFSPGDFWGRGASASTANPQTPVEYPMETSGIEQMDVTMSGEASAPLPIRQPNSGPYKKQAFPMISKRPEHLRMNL
Chain of Lactate dehydrogenase (Q0PJ46 whole entry): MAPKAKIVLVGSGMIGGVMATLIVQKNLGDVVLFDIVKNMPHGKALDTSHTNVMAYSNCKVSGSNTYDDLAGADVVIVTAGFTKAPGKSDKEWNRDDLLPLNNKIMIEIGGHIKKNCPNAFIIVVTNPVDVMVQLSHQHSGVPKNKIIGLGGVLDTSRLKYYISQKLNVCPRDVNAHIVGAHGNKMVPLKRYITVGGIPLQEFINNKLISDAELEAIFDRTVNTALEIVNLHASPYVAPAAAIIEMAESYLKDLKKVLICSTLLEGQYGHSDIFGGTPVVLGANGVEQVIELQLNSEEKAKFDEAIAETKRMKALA

SMILES: O=S(=O)(c1cccc2cnccc12)N1CCCNCC1 [FASUDIL]
- IC50 (HASMC): 1.3 µM
- Activity (Rattus norvegicus [1]): -10 bpm
- Activity (Rattus norvegicus [2]): -10 bpm
- Activity (Rattus norvegicus [3]): -50 bpm
- Activity (Rattus norvegicus [4]): -30 mmHg
- Activity (Rattus norvegicus [5]): -20 mmHg
- Activity (Rattus norvegicus [6]): 0 mmHg

- IC50 [7]: 9 µM
- logD [8]: 1.2
SMILES: CS(=O)(=O)c1ccc(Oc2cc(F)cc(C#N)c2)c2c1[C@H](O)[C@H](F)[C@@H]2F [BELZUTIFAN]

- IC50 [9]: 0.019 µM
SMILES: Cc1ccc2c(c1)nc(-c1nonc1N)n2C1CCC1

SMILES: O=C(O)c1nonc1O
- IC50 (Lactate dehydrogenase): 0.65 µM
- IC50 [10]: 72.1 µM
- Ki [11]: 0.21 µM
- EC50 (Plasmodium falciparum [12]): 22.5 µM
- EC90 (Plasmodium falciparum [12]): 75.9 µM
- EC50 (Plasmodium falciparum [13]): 18.6 µM
- EC50 (KB): 640 µM
- EC50 (HeLa [14]): 1300 µM
- Activity (Plasmodium falciparum [15]): 41%
- Activity (Plasmodium falciparum [16]): 100%
- Cmax [17]: 138 µM
- Cmax [18]: 196 µM
- half-life [19]: 1.3 h
- half-life [20]: 1.3 h

- EC50 (SK-OV-3 [21]): 0.01 µM
- half-life [23]: > 3 h
SMILES: NS(=O)(=O)CC(=O)NCCSc1nonc1/C(=N/O)Nc1cccc(Cl)c1
- Activity (SK-OV-3 [22]): 50%

- EC50 (HCT-116): 31 µM
- EC50 (SW480): 20 µM
SMILES: c1ccc2c(c1)c1nc3nonc3nc1n2CCc1nn[nH]n1

- EC50 (HeLa [24]): 15.1 µM
SMILES: Cc1ccc(/C=N/NC(=O)c2nnn(-c3nonc3N)c2-c2ccc([N+](=O)[O-])cc2)cc1

- EC50 (HCT-116): 1.6 µM
- EC50 (HL-60): 1.2 µM
- EC50 (A549): 0.8 µM
SMILES: Nc1nonc1C(=O)N/N=C1\c2ccccc2-c2nc3nonc3nc21

SMILES: CCn1c(-c2nonc2N)nc2c(C#CC(C)(C)O)ncc(OC[C@H]3CCCNC3)c21 [GSK-690693]
- Activity (BT-474): 46%
- Activity (HCC1954): 65%
- Activity (MDA-MB-453): 27%
- Activity (SK-OV-3 [25]): 58%
- Activity (LNCaP): 50%
- Activity (PANC-1): 5%

- half-life [26]: 3.7 h
SMILES: O=C(CNc1nonc1/C(=N/O)N[C@H]1Cc2ccc(F)cc21)NCCO
- Activity (HeLa [27]): 15%

Reference: ChEMBL document CHEMBL5236544, “Furazans in Medicinal Chemistry” (J Med Chem, 2021)
